Here are results for ten compounds from PubChem BioAssay (NCI).

Some test systems named below: COLO 205 colon; U251 CNS; M14 melanoma; KM12 colon; MALME-3M melanoma; EKVX NSCLC; KM20L2 colon; SN12C renal; NCI-H226 lung.
What all share (test): NCI-60 cell line screen, 48 h

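Growth conditions: 96-well plates. Treatment: test compound, 48 hours, 5 concentrations. Analysis: linear interpolation between bracketing concentrations; unreached endpoints set to highest concentration. GI50 is the concentration that inhibits growth by half. TGI denotes the concentration required for complete inhibition of growth.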

As for `CC(=O)OC1C(CCl)OC(N=[N+]=[N-])C(OC(C)=O)C1OC(C)=O` (centres undefined), the TGI with COLO 205 colon, in the assay on U251 CNS, in the assay with M14 melanoma, in the assay with KM12 colon, in the assay with MALME-3M melanoma and in the assay on EKVX NSCLC was more than 100 µM each time. The TGI in the assay on KM20L2 colon and in the assay on SN12C renal was more than 100 µM each time.
With `COC(=O)[C@@]1(C)CC[C@]2(C)CC[C@]3(C)C4=CC=C5C(=CC(=O)C(O)=C5C)[C@]4(C)CC[C@@]3(C)[C@@H]2C1`, the GI50 in the assay with COLO 205 colon was 0.182 µM; in the assay with U251 CNS, 0.173 µM; with M14 melanoma, 0.198 µM; in the assay with KM12 colon it was 0.369 µM; in the assay with MALME-3M melanoma it was 0.232 µM; with EKVX NSCLC it was 0.295 µM. Further, the GI50 was 0.201 µM in the assay with SN12C renal and 0.294 µM in the assay on NCI-H226 lung. For the same compound, the TGI with COLO 205 colon worked out at 0.437 µM; with U251 CNS, 0.321 µM; with M14 melanoma, 0.49 µM; in the assay on KM12 colon, 1.49 µM; with MALME-3M melanoma, 0.446 µM; with EKVX NSCLC, 1.11 µM. For the same compound, the TGI is 0.507 µM with SN12C renal and 0.739 µM with NCI-H226 lung.
Regarding `C#COc1cccc(Nc2ncnc3ncc(NC(=O)CCl)cc23)c1`, the GI50 in the assay with COLO 205 colon was more than 26.8 µM; in the assay with U251 CNS it was more than 13.3 µM; in the assay on M14 melanoma, 50.5 µM; in the assay on KM12 colon, more than 28.4 µM; in the assay on MALME-3M melanoma, more than 23.7 µM; with EKVX NSCLC, more than 62.5 µM. In addition, the GI50 with NCI-H226 lung was more than 62.5 µM. The TGI in the assay on COLO 205 colon is more than 62.5 µM; in the assay with U251 CNS it was more than 34.5 µM; with M14 melanoma, more than 62.5 µM; in the assay with KM12 colon, more than 62.5 µM; with MALME-3M melanoma, more than 38 µM; in the assay with EKVX NSCLC, more than 62.5 µM. In addition, the TGI in the assay with SN12C renal and in the assay on NCI-H226 lung was more than 62.5 µM in each case.
Consider `CC1OC(OC2CC(O)C3(CO)C4C(O)CC5(C)C(C6=CC(=O)OC6)CCC5(O)C4CCC3(O)C2)C(O)C(O)C1O` (centres undefined), for which the GI50 was 0.0239 µM in the assay with COLO 205 colon; 0.0219 µM with U251 CNS; 0.0212 µM in the assay with M14 melanoma; 0.0249 µM in the assay with KM12 colon; less than 0.0131 µM with MALME-3M melanoma; less than 0.0107 µM in the assay with EKVX NSCLC. Besides, the GI50 in the assay on NCI-H226 lung is 0.0167 µM. In addition, the TGI in the assay on COLO 205 colon is 0.116 µM; with U251 CNS, 0.0683 µM; with M14 melanoma, 0.0784 µM; with KM12 colon, 0.217 µM; with MALME-3M melanoma, 0.0172 µM; in the assay on EKVX NSCLC it was less than 0.0142 µM. Moreover, the TGI with SN12C renal is 0.0228 µM; in the assay on NCI-H226 lung it was 0.0646 µM.
As for `C=C1C(=O)O[C@@H]2C[C@@H]1CC[C@@]1(C)O[C@@H]1CC[C@@]1(C)O[C@@H]1CC[C@@]2(C)O`, the GI50 is 14.4 µM in the assay with COLO 205 colon; 16.1 µM with U251 CNS; 21.4 µM with M14 melanoma; 26.2 µM in the assay with KM12 colon; 16.2 µM in the assay on MALME-3M melanoma; 32.3 µM with EKVX NSCLC. Moreover, the GI50 in the assay on SN12C renal was 16.1 µM; with NCI-H226 lung, 16.9 µM. The TGI with COLO 205 colon is 31 µM; in the assay on U251 CNS, 36.1 µM; in the assay on M14 melanoma, 42.4 µM; in the assay with KM12 colon, more than 100 µM; with MALME-3M melanoma, 42.3 µM; in the assay with EKVX NSCLC it was more than 100 µM. The TGI in the assay with SN12C renal is 40.1 µM; in the assay with NCI-H226 lung, 35.9 µM.
Consider `COc1cc([C@@H]2c3cc4c(cc3[C@@H](O[C@@H]3O[C@@H]5CO[C@@H](c6cccs6)O[C@H]5[C@H](O)[C@H]3O)[C@H]3COC(=O)[C@H]23)OCO4)cc(OC)c1O`, for which the GI50 is 1.88 µM with COLO 205 colon; 0.18 µM in the assay with U251 CNS; 0.267 µM in the assay with M14 melanoma; 0.634 µM in the assay with KM12 colon; 0.435 µM with MALME-3M melanoma; 4.1 µM with EKVX NSCLC. The GI50 in the assay with SN12C renal was 0.166 µM; in the assay with NCI-H226 lung, 0.152 µM. Moreover, the TGI in the assay on COLO 205 colon was 8.94 µM; in the assay with U251 CNS it was 6.96 µM; in the assay with M14 melanoma, 2.95 µM; in the assay with KM12 colon it was 4.34 µM; with MALME-3M melanoma it was 5.02 µM; in the assay with EKVX NSCLC it was more than 100 µM. Further, the TGI stood at 2.73 µM in the assay with SN12C renal and 0.742 µM in the assay with NCI-H226 lung.
Regarding `CC(=O)OC1CCC2(C)C(=CCC3C2CCC2(C)C(C(C)C(=O)O)CCC32)C1` (centres undefined), the TGI with COLO 205 colon, with U251 CNS, with M14 melanoma, in the assay with KM12 colon, in the assay on MALME-3M melanoma and in the assay with EKVX NSCLC was more than 100 µM throughout. For the same compound, the TGI in the assay on SN12C renal and in the assay on NCI-H226 lung was more than 100 µM in each case.
Consider `C=C1CCC2C3(C)COC(c4ccc(SC)cc4)OC3CCC2(C)C1C/C=C1/C(=O)OCC1O` (centres undefined), for which the GI50 in the assay with COLO 205 colon is 7.72 µM; in the assay on U251 CNS it was 2.29 µM; in the assay with M14 melanoma, 6.53 µM; in the assay on KM12 colon, 5.21 µM; in the assay on MALME-3M melanoma, 14.9 µM; in the assay on EKVX NSCLC it was 7.67 µM. Besides, the GI50 in the assay on SN12C renal is 3.94 µM; in the assay with NCI-H226 lung, 7.85 µM. Also, the TGI amounted to 20.6 µM in the assay on COLO 205 colon; 5.7 µM in the assay with U251 CNS; 17.7 µM with M14 melanoma; 17.6 µM in the assay with KM12 colon; 32.1 µM with MALME-3M melanoma; 26.9 µM with EKVX NSCLC. In addition, the TGI in the assay on SN12C renal was found to be 18.6 µM; with NCI-H226 lung, 25.7 µM.
With `CC(=O)OC(C)(C)N=Nc1ccc(Br)cc1`, the TGI in the assay with COLO 205 colon was 1.03 µM; in the assay on U251 CNS it was more than 100 µM; in the assay with M14 melanoma, more than 100 µM; in the assay with KM12 colon, more than 100 µM; in the assay with MALME-3M melanoma it was more than 100 µM; with EKVX NSCLC it was more than 100 µM. For the same compound, the TGI in the assay on SN12C renal was more than 100 µM; with NCI-H226 lung it was more than 50.5 µM.
Turning to `CC(=O)OC[C@]12CC[C@@H]([C@@H](C)C(N)=O)[C@@H]1[C@H]1CC[C@@H]3[C@@]4(C)CC[C@H](OC(C)=O)C(C)(C)[C@@H]4CC[C@@]3(C)[C@]1(C)CC2`, the GI50 was 4.31 µM with COLO 205 colon; 5.1 µM in the assay on U251 CNS; 7.38 µM in the assay with M14 melanoma; 3.86 µM with KM12 colon; 10.5 µM with MALME-3M melanoma; 9.27 µM in the assay with EKVX NSCLC. Moreover, the GI50 was 5.65 µM in the assay on SN12C renal and 7.28 µM in the assay on NCI-H226 lung. In addition, the TGI turned out to be 25 µM with COLO 205 colon; 20.4 µM in the assay with U251 CNS; 31.6 µM in the assay on M14 melanoma; 15.8 µM in the assay on KM12 colon; 24.2 µM in the assay with MALME-3M melanoma; 22.5 µM in the assay on EKVX NSCLC. Besides, the TGI in the assay with SN12C renal was determined as 18.8 µM; in the assay with NCI-H226 lung, 23.9 µM.
